Test system in the first data set: not listed separately
The experiment in a line: rat male reproductive tissue toxicity study. Type of data set: in vivo. As to conditions: dosed at 300 mpk PO for 5 days. Here is the method: In some embodiments, male reproductive tissue toxicity can be assessed in suitable in vivo models. In some embodiments, male reproductive tissue toxicity is assessed by monitoring any decreases in the testes weight and/or epididymis weight.
As to `O=C(O)CCCN1C(=O)C2Cc3c(n(Cc4ccc(F)cc4)c4ccccc34)CN2C1=O` (racemic) [Compound 1-1, 4-(6-(4-fluorobenzyl)-1,3-dioxo-11,11a-dihydro-1H-imidazo[1′,5′:1,6]pyrido[3,4-b]indol-2(3H,5H,6H)-yl)butanoic acid], the “decreases in the testes weight (as a percentage of body weight)” value is listed as “no decreases in the testes weight”.
`O=C1NC(=O)N2Cc3c(c4ccccc4n3Cc3ccc(F)cc3)CC12` (racemic) [Compound 1-15, 6-(4-fluorobenzyl)-5,6,11,11a-tetrahydro-1H-imidazo[1′,5′:1,6]pyrido[3,4-b]indole-1,3(2H)-dione]: the “decreases in the testes weight (as a percentage of body weight)” value is reported as “no decreases in the testes weight”.

The data set is the same for the next values; noted with them: rat male reproductive tissue toxicity study.
Consider `O=C(O)CCCN1C(=O)C2Cc3c(n(Cc4ccc(F)cc4)c4ccccc34)CN2C1=O` (racemic) [Compound 1-1, 4-(6-(4-fluorobenzyl)-1,3-dioxo-11,11a-dihydro-1H-imidazo[1′,5′:1,6]pyrido[3,4-b]indol-2(3H,5H,6H)-yl)butanoic acid], for which the “decreases in testes weight” value is listed as “did not exhibit the same effects”.
Take `O=C1NC(=O)N2Cc3c(c4ccccc4n3Cc3ccc(F)cc3)CC12` (racemic) [Compound 1-15, 6-(4-fluorobenzyl)-5,6,11,11a-tetrahydro-1H-imidazo[1′,5′:1,6]pyrido[3,4-b]indole-1,3(2H)-dione]: the “decreases in testes weight” value is “did not exhibit the same effects”.
In the case of `O=C(O)CCN1C(=O)[C@@H]2Cc3c(n(Cc4ccc(F)cc4)c4ccccc34)CN2C1=O` [Compound 1-5, (S)-3-(6-(4-fluorobenzyl)-1,3-dioxo-5,6,11,11a-tetrahydro-1H-imidazo[1′,5′:1,6]pyrido[3,4-b]indol-2(3H)-yl)propanoic acid], the “decreases in testes weight” value is “undesired decreases in testes weight”.

A further data set addresses human autotaxin (ATX) (Homo sapiens (Human), UniProt Q13822). The data set is described as follows: Human autotaxin assay (choline release from LPC, Hep3B conditioned media). Type of data set: biochemical. Conditions: concentrated conditioned media from Hep3B cells, LPC substrate. As for the experimental part: ATX activity is assayed in concentrated conditioned media from Hep3B human hepatocellular carcinoma cells by measuring the amount of choline released from the substrate, lysophosphatidylcholine (LPC) as it is cleaved to LPA. Conditioned media is collected from confluent Hep3B cells and concentrated 20-fold using Centriprep-30 filter devices (Millipore). […] 100 μl of a color mix containing 4.5 mM 4-aminoantipyrine, 2.7 mM N-ethyl-N-(2-hydroxy-3-sulfopropyl)-m-toluidine, 21 units/ml horseradish peroxidase and 3 units/ml choline oxidase in 50 mM Tris, pH 8, 4.5 mM MgCl2 is added and the incubation continued for 15 minutes at room temperature before reading the absorbance at 555 nm.
One may read the IC50 as the point on the concentration scale where inhibition reaches its midpoint. The low end stands for greater potency, the high end for weaker potency. The compound `O=C(O)CCCN1C(=O)C2Cc3c(n(Cc4ccc(F)cc4)c4ccccc34)CN2C1=O` (racemic) [Compound 1-1, 4-(6-(4-fluorobenzyl)-1,3-dioxo-11,11a-dihydro-1H-imidazo[1′,5′:1,6]pyrido[3,4-b]indol-2(3H,5H,6H)-yl)butanoic acid] came in with an IC50 of less than 500 nM.
On the same count and under the same terms, as for `O=C1NC(=O)N2Cc3c(c4ccccc4n3Cc3ccc(F)cc3)CC12` (racemic) [Compound 1-15, 6-(4-fluorobenzyl)-5,6,11,11a-tetrahydro-1H-imidazo[1′,5′:1,6]pyrido[3,4-b]indole-1,3(2H)-dione], the figure is less than 500 nM; as for `CC(C)(CCN1C(=O)[C@@H]2Cc3c(n(Cc4ccc(F)cc4)c4ccccc34)CN2C1=O)C(=O)O` [Compound 1-39, (S)-4-(6-(4-fluorobenzyl)-1,3-dioxo-5,6,11,11a-tetrahydro-1H-imidazo[1′,5′:1,6]pyrido[3,4-b]indol-2(3H)-yl)-2,2-dimethylbutanoic acid], less than 500 nM.
`CC(C)(CC(=O)O)CN1C(=O)[C@@H]2Cc3c(n(Cc4ccc(F)cc4)c4ccccc34)CN2C1=O` [Compound 1-42, (S)-4-(6-(4-fluorobenzyl)-1,3-dioxo-5,6,11,11a-tetrahydro-1H-imidazo[1′,5′:1,6]pyrido[3,4-b]indol-2(3H)-yl)-3,3-dimethylbutanoic acid] came in with an IC50 of less than 500 nM.
Take `O=C(O)CCN1C(=O)[C@@H]2Cc3c(n(Cc4ccc(Cl)nc4)c4ccccc34)CN2C1=O` [Compound 1-84, (S)-3-(6-((6-chloropyridin-3-yl)methyl)-1,3-dioxo-5,6,11,11a-tetrahydro-1H-imidazo[1′,5′:1,6]pyrido[3,4-b]indol-2(3H)-yl)propanoic acid]: the IC50 is less than 500 nM.
As to `O=C(O)CCN1C(=O)[C@@H]2Cc3c(n(Cc4cnc(C(F)(F)F)s4)c4ccccc34)CN2C1=O` [Compound 1-102, (S)-3-(1,3-dioxo-6-((2-(trifluoromethyl)thiazol-5-yl)methyl)-11,11a-dihydro-1H-imidazo[1′,5′:1,6]pyrido[3,4-b]indol-2(3H,5H,6H)-yl)propanoic acid], the IC50 is less than 500 nM.
Take `O=C1C2Cc3c(n(Cc4ccc(F)cc4)c4ccccc34)CN2C(=O)N1CCO` (stereo not drawn) [Compound 1-121, 6-(4-fluorobenzyl)-2-(2-hydroxyethyl)-5,6,11,11a-tetrahydro-1H-imidazo[1′,5′:1,6]pyrido[3,4-b]indole-1,3(2H)-dione]: the concentration for half-maximal inhibition (IC50) is less than 500 nM.
For `O=C1NC(=O)N2Cc3c(c4ccccc4n3Cc3ccc(F)cc3)C[C@@H]12` [Compound 1-130, (S)-6-(4-fluorobenzyl)-5,6,11,11a-tetrahydro-1H-imidazo[1′,5′:1,6]pyrido[3,4-b]indole-1,3(2H)-dione], the IC50 is less than 500 nM.
Still for that read-out and setting: as for `COc1ccc(Cn2c3c(c4ccccc42)C[C@H]2C(=O)N(CCC(=O)O)C(=O)N2C3)cc1` [Compound 1-131, (S)-3-(6-(4-methoxybenzyl)-1,3-dioxo-11,11a-dihydro-1H-imidazo[1′,5′:1,6]pyrido[3,4-b]indol-2(3H,5H,6H)-yl)propanoic acid], the figure is less than 500 nM.
Consider `O=C(O)CCN1C(=O)[C@@H]2Cc3c(n(Cc4ccc(Cl)cc4Cl)c4ccccc34)CN2C1=O` [Compound 1-132, (S)-3-(6-(2,4-dichlorobenzyl)-1,3-dioxo-11,11a-dihydro-1H-imidazo[1′,5′:1,6]pyrido[3,4-b]indol-2(3H,5H,6H)-yl)propanoic acid], for which the concentration for half-maximal inhibition (IC50) was less than 500 nM.
In turn, `O=C(O)CCN1C(=O)[C@@H]2Cc3c(n(Cc4ccc(Cl)cc4F)c4ccccc34)CN2C1=O` [Compound 1-133, (S)-3-(6-(4-chloro-2-fluorobenzyl)-1,3-dioxo-11,11a-dihydro-1H-imidazo[1′,5′:1,6]pyrido[3,4-b]indol-2(3H,5H,6H)-yl)propanoic acid] showed an IC50 of less than 500 nM.
For the compound `O=C(O)CCN1C(=O)[C@@H]2Cc3c(n(Cc4ccc(F)cc4F)c4ccccc34)CN2C1=O` [Compound 1-134, (S)-3-(6-(2,4-difluorobenzyl)-1,3-dioxo-11,11a-dihydro-1H-imidazo[1′,5′:1,6]pyrido[3,4-b]indol-2(3H,5H,6H)-yl)propanoic acid], the IC50 was less than 500 nM.
As for `O=C(O)CCN1C(=O)[C@@H]2Cc3c(n(Cc4ccc(F)nc4)c4ccccc34)CN2C1=O` [Compound 1-135, (S)-3-(6-((6-fluoropyridin-3-yl)methyl)-1,3-dioxo-11,11a-dihydro-1H-imidazo[1′,5′:1,6]pyrido[3,4-b]indol-2(3H,5H,6H)-yl)propanoic acid], the IC50 was less than 500 nM.
As to `O=C(O)CCN1C(=O)N2Cc3c(c4ccccc4n3Cc3ccc(F)cc3)C[C@H]2C1=S` [Compound 1-141, (S)-3(6-(4-fluorobenzyl)-3-oxo-1-thioxo-5,6,11,11a-tetrahydro-1H-imidazo[1′,5′:1,6]pyrido[3,4-b]indol-2(3H)-yl)propanoic acid], the concentration for half-maximal inhibition (IC50) is greater than 1000 nM.
Regarding `CS(=O)(=O)NC(=O)CCN1C(=O)[C@@H]2Cc3c(n(Cc4ccc(F)cc4)c4ccccc34)CN2C1=O` [Compound 1-142, (S)-3-(6-(4-fluorobenzyl)-1,3-dioxo-11,11a-dihydro-1H-imidazo[1′,5′:1,6]pyrido[3,4-b]indol-2(3H,5H,6H)-yl)-N-(methylsulfonyl)propanamide], the IC50 is less than 500 nM.
As to `O=C(CCN1C(=O)[C@@H]2Cc3c(n(Cc4ccc(F)cc4)c4ccccc34)CN2C1=O)NS(=O)(=O)c1ccccc1` [Compound 1-143, (S)-3-(6-(4-fluorobenzyl)-1,3-dioxo-11,11a-dihydro-1H-imidazo[1′,5′:1,6]pyrido[3,4-b]indol-2(3H,5H,6H)-yl)-N-(phenylsulfonyl)propanamide], the IC50 is less than 500 nM.
`CC1(C)c2c(n(Cc3ccc(F)cc3)c3ccccc23)CN2C(=O)N(CCC(=O)O)C(=O)C21` (stereo not drawn) [Compound A11, 3-(6-(4-fluorobenzyl)-11,11-dimethyl-1,3-dioxo-5,6,11,11a-tetrahydro-1H-imidazo[1′,5′:1,6]pyrido[3,4-b]indol-2(3H)-yl)propanoic acid] registered an IC50 of less than 500 nM.
Same read-out and setting: as for `CC12Cc3c(n(Cc4ccc(F)cc4)c4ccccc34)CN1C(=O)N(CCC(=O)O)C2=O` (stereo not drawn) [Compound A113, 3-(6-(4-fluorobenzyl)-11a-methyl-1,3-dioxo-11,11a-dihydro-1H-imidazo[1′,5′:1,6]pyrido[3,4-b]indol-2(3H,5H,6H)-yl)propanoic acid], the figure is greater than 1000 nM; as for `CC1(C)c2c(n(Cc3ccc(F)cc3)c3ncccc23)CN2C(=O)N(CCC(=O)O)C(=O)C21` (stereo not drawn) [Compound C11, 3-{8-[(p-fluorophenyl)methyl]-16,16-dimethyl-12,14-dioxo-6.8.11.13-tetrazatetracyclo[7.7.0.02,7.011,15]hexadeca-1(9),2(7),3,5-tetraene-13-yl}propionic acid], less than 500 nM.
`O=C1NC(=O)N2Cc3c(c4cccnc4n3Cc3ccc(F)cc3)CC12` (stereo not drawn) [Compound C109]: the 50% inhibitory concentration (IC50) was less than 500 nM.
As to `CC(C)(CN1C(=O)C2Cc3c(n(Cc4ccc(F)cc4)c4ncccc34)CN2C1=O)C(=O)O` (stereo not drawn) [Compound C111, 3-{8-[(p-fluorophenyl)methyl]-12,14-dioxo-6.8.11.13-tetrazatetracyclo[7.7.0.02,7.011,15]hexadeca-1(9),2(7),3,5-tetraene-13-yl}-2,2-dimethyl propionic acid], the IC50 is less than 500 nM.
With `O=C(O)CCN1C(=O)C2Cc3c(n(Cc4ccc(F)cc4)c4ncccc34)CN2C1=O` (stereo not drawn) [Compound C114, 3-{8-[(4-fluorophenyl)methyl]-12,14-dioxo-6.8.11.13-tetraazatetracyclo[7.7.0.02, 7.011,15]hexadeca-1(9),2(7),3,5-tetraen-13-yl}propionic acid], the 50% inhibitory concentration (IC50) is less than 500 nM.
In the case of `O=C(O)CCN1C(=O)[C@@H]2Cc3c(n(Cc4ccc(F)cc4)c4ccccc34)CN2C1=S` [Compound E1, (S)-3-(6-(4-fluorobenzyl)-1-oxo-3-thioxo-5,6,11,11a-tetrahydro-1H-imidazo[1′,5′:1,6]pyrido[3,4-b]indol-2(3H)-yl)propanoic acid], the half-inhibitory concentration (IC50) is greater than 1000 nM.
On the same count and under the same terms, the figure for `O=C1NC(=S)N2Cc3c(c4ccccc4n3Cc3ccc(F)cc3)C[C@@H]12` [Compound E2, (S)-6-(4-fluorobenzyl)-3-thioxo-2,3,5,6,11,11a-hexahydro-1H-imidazo[1′,5′:1,6]pyrido[3,4-b]indol-1-one] is less than 500 nM.
In turn, `O=C1NC(=S)N2Cc3c(c4cccnc4n3Cc3ccc(F)cc3)CC12` (stereo not drawn) [Compound E3] came in with an IC50 of less than 500 nM.

For the origin of these results see patent publication US9926318B2, “Tetracyclic autotaxin inhibitors” (PharmAkea, Inc., priority 2013, dated 2018).
